In general, IC50 refers to the point on the concentration scale where inhibition reaches its midpoint.

Assay [1] has as its target T1, Human PDGFRα, cytoplasmic domain (GST-PDGFRα) (Homo sapiens, UniProt P16234).
T1 construct: made in house
Put plainly: Human PDGFRα biochemical inhibition assay (off-chip Mobility Shift Assay).

In assay [2] the target is T2, Human PDGFRβ, cytoplasmic domain (GST-PDGFRβ) (Homo sapiens, UniProt P09619).
T2 construct: made in house
Put plainly: Human PDGFRβ biochemical inhibition assay (off-chip Mobility Shift Assay). The method, boiled down:
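GST-tagged cytoplasmic domain (aa 557-1106) from baculovirus was incubated 1 h at room temperature with compound, CSKtide, ATP at Km and Mg²⁺ in HEPES buffer, pH 7.5. Phosphorylated and unphosphorylated peptide were separated by off-chip mobility shift, and the product ratio P/(P+S) gave percent inhibition.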

T1 sequence (P16234 550-1089 T674I): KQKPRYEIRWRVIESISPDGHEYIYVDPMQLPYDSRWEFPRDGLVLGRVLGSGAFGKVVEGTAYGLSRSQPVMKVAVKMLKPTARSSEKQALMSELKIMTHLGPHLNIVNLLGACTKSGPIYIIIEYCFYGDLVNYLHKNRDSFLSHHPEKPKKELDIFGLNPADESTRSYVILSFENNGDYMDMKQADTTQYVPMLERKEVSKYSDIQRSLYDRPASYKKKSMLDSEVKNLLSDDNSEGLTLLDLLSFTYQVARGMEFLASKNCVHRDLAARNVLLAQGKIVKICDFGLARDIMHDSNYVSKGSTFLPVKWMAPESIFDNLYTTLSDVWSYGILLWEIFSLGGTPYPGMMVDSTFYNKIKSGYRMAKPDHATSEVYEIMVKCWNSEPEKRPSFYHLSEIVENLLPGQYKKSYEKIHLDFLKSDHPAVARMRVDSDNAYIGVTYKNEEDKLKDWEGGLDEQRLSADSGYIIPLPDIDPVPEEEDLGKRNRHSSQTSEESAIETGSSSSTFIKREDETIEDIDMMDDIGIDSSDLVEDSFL
T2 sequence (P09619 with tags, fused parts or gaps): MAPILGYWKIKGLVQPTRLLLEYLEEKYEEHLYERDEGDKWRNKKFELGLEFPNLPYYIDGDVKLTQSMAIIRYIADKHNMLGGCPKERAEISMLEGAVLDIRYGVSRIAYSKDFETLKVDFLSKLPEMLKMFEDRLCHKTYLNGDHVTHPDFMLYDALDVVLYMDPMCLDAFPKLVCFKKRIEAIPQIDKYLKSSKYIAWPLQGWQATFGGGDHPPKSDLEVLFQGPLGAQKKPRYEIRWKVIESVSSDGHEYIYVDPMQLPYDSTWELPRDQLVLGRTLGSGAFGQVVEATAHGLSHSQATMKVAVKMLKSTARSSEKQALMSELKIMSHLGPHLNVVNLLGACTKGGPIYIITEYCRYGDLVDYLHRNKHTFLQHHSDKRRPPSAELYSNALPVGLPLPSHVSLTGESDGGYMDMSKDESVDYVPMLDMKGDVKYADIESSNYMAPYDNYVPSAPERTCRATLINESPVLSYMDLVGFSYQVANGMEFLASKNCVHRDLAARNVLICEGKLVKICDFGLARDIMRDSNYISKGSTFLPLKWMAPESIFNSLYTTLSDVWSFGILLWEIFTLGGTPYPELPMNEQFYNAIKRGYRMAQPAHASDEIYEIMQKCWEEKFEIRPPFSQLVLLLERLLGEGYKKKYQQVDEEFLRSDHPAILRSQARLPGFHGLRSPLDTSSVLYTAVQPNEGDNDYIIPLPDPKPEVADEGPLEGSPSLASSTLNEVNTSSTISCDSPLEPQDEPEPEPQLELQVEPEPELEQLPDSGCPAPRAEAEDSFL

On to `CCn1cc2ncc(N[C@@H](C)c3cccc(NC(=O)c4ccc(CN5CC6(COC6)C5)c(C(F)F)c4)c3)nc2n1` [Compound 506, (S)-4-((2-oxa-6-azaspiro[3.3]heptan-6-yl)methyl)-3-(difluoromethyl)-N-(3-(1-((2-ethyl-2H-pyrazolo[3,4-b]pyrazin-6-yl)amino)ethyl)phenyl)benzamide], for which the IC50 in assay [1] and in assay [2] was < 300 nM each time.

Consider `CCn1cc2ncc(N[C@@H](C)c3cc(NC(=O)c4ccc(F)c(Cl)c4)ccc3C)nc2n1` [Compound 507, (S)-3-chloro-N-(3-(1-((2-ethyl-2H-pyrazolo[3,4-b]pyrazin-6-yl)amino)ethyl)-4-methylphenyl)-4-fluorobenzamide], for which the IC50 in assay [1] and in assay [2] was < 300 nM each time.

`CCn1cc2ncc(N[C@@H](C)c3cc(NC(=O)c4ccc(Cl)c(C)c4)ccc3C)nc2n1` [Compound 508, (S)-4-chloro-N-(3-(1-((2-ethyl-2H-pyrazolo[3,4-b]pyrazin-6-yl)amino)ethyl)-4-methylphenyl)-3-methylbenzamide]: the half-maximal inhibitory concentration (IC50) in assay [1] and in assay [2] was < 300 nM each time.

For the molecule `CCn1cc2ncc(N[C@@H](C)c3cc(NC(=O)c4cnc(C)c(C)c4)ccc3C)nc2n1` [Compound 509, (S)-N-(3-(1-((2-ethyl-2H-pyrazolo[3,4-b]pyrazin-6-yl)amino)ethyl)-4-methylphenyl)-5,6-dimethylnicotinamide], the IC50 in assay [1] and in assay [2] was < 300 nM in each case.

`CCn1cc2ncc(N[C@@H](C)c3cc(NC(=O)c4cncc(C)c4)ccc3C)nc2n1` [Compound 510, (S)-N-(3-(1-((2-ethyl-2H-pyrazolo[3,4-b]pyrazin-6-yl)amino)ethyl)-4-methylphenyl)-5-methylnicotinamide]: the IC50 in assay [1] and in assay [2] was < 300 nM throughout.

As to `CCn1cc2ncc(N[C@@H](C)c3cc(NC(=O)c4ccc(OC(F)F)nc4)ccc3C)nc2n1` [Compound 511, (S)-6-(difluoromethoxy)-N-(3-(1-((2-ethyl-2H-pyrazolo[3,4-b]pyrazin-6-yl)amino)ethyl)-4-methylphenyl)nicotinamide], the 50% inhibitory concentration (IC50) in assay [1] and in assay [2] was < 300 nM throughout.

Turning to `CCn1cc2ncc(N[C@@H](C)c3cc(NC(=O)c4cnc(F)c(C)c4)ccc3C)nc2n1` [Compound 512, (S)-N-(3-(1-((2-ethyl-2H-pyrazolo[3,4-b]pyrazin-6-yl)amino)ethyl)-4-methylphenyl)-6-fluoro-5-methylnicotinamide], the IC50 in assay [1] and in assay [2] was < 300 nM throughout.

For the molecule `CCNc1ncc(C(=O)Nc2ccc(C)c([C@H](C)Nc3cnc4cn(CC)nc4n3)c2)cc1C` [Compound 513, (S)-N-(3-(1-((2-ethyl-2H-pyrazolo[3,4-b]pyrazin-6-yl)amino)ethyl)-4-methylphenyl)-6-(ethylamino)-5-methylnicotinamide], the half-inhibitory concentration (IC50) in assay [1] and in assay [2] was < 300 nM in each case.

With `CCn1cc2ncc(N[C@@H](C)c3cc(NC(=O)c4cnc(N5CCN(C)CC5)c(C)c4)ccc3C)nc2n1` [Compound 514, (S)-N-(3-(1-((2-ethyl-2H-pyrazolo[3,4-b]pyrazin-6-yl)amino)ethyl)-4-methylphenyl)-5-methyl-6-(4-methylpiperazin-1-yl)nicotinamide], the 50% inhibitory concentration (IC50) in assay [1] and in assay [2] was < 300 nM in each case.

Turning to `CCn1cc2ncc(N[C@@H](C)c3cc(NC(=O)c4cnc(NC5CC5)c(C)c4)ccc3C)nc2n1` [Compound 515, (S)-6-(cyclopropylamino)-N-(3-(1-((2-ethyl-2H-pyrazolo[3,4-b]pyrazin-6-yl)amino)ethyl)-4-methylphenyl)-5-methylnicotinamide], the IC50 in assay [1] and in assay [2] was < 300 nM in each case.

In the case of `CCc1ccc(NC(=O)c2ccc(C(F)(F)F)nc2)cc1[C@H](C)Nc1cnc2cn(CC)nc2n1` [Compound 516, (S)-N-(4-ethyl-3-(1-((2-ethyl-2H-pyrazolo[3,4-b]pyrazin-6-yl)amino)ethyl)phenyl)-6-(trifluoromethyl)nicotinamide], the IC50 in assay [1] and in assay [2] was ≥ 1000 nM in each case.

`CCn1cc2ncc(N[C@@H](C)c3cc(NC(=O)c4cc(F)c(CN5CCN(C)CC5)c(Cl)c4)ccc3C)nc2n1` [Compound 518, (S)-3-chloro-N-(3-(1-((2-ethyl-2H-pyrazolo[3,4-b]pyrazin-6-yl)amino)ethyl)-4-methylphenyl)-5-fluoro-4-((4-methylpiperazin-1-yl)methyl)benzamide]: the IC50 in assay [1] and in assay [2] was < 300 nM in each case.

Consider `CCn1cc2ncc(N[C@@H](C)c3cc(NC(=O)c4cc(F)c(CN5CCOCC5)c(Cl)c4)ccc3C)nc2n1` [Compound 520, (S)-3-chloro-N-(3-(1-((2-ethyl-2H-pyrazolo[3,4-b]pyrazin-6-yl)amino)ethyl)-4-methylphenyl)-5-fluoro-4-(morpholinomethyl) benzamide], for which the IC50 in assay [1] and in assay [2] was < 300 nM throughout.

Consider `CCn1cc2ncc(N[C@@H](C)c3cc(NC(=O)c4cc(F)c(CN5CC[C@@H](O)C5)c(Cl)c4)ccc3C)nc2n1` [Compound 521, 3-chloro-N-(3-((S)-1-((2-ethyl-2H-pyrazolo[3,4-b]pyrazin-6-yl)amino)ethyl)-4-methylphenyl)-5-fluoro-4-(((R)-3-hydroxypyrrolidin-1-yl)methyl) benzamide], for which the IC50 in assay [1] and in assay [2] was < 300 nM throughout.

Consider `CCn1cc2ncc(N[C@@H](C)c3cc(NC(=O)c4ccc(CN5CCCC5)c(C)c4)ccc3C)nc2n1` [Compound 522, (S)-N-(3-(1-((2-ethyl-2H-pyrazolo[3,4-b]pyrazin-6-yl)amino)ethyl)-4-methylphenyl)-3-methyl-4-(pyrrolidin-1-ylmethyl)benzamide], for which the IC50 in assay [1] and in assay [2] was < 300 nM each time.

For `CCn1cc2ncc(N[C@@H](C)c3cc(NC(=O)c4ccc(CN5CCOCC5)c(C)c4)ccc3C)nc2n1` [Compound 523, (S)-N-(3-(1-((2-ethyl-2H-pyrazolo[3,4-b]pyrazin-6-yl)amino)ethyl)-4-methylphenyl)-3-methyl-4-(morpholinomethyl) benzamide], the concentration for half-maximal inhibition (IC50) in assay [1] and in assay [2] was < 300 nM in each case.

`CCn1cc2ncc(N[C@@H](C)c3cc(NC(=O)c4ccc(CN5CCN(C)CC5)c(C)c4)ccc3C)nc2n1` [Compound 524, (S)-N-(3-(1-((2-ethyl-2H-pyrazolo[3,4-b]pyrazin-6-yl)amino)ethyl)-4-methylphenyl)-3-methyl-4-((4-methylpiperazin-1-yl)methyl)benzamide]: the 50% inhibitory concentration (IC50) in assay [1] and in assay [2] was < 300 nM throughout.

In the case of `CCn1cc2ncc(N[C@@H](C)c3cc(NC(=O)c4cc(C)c(CN5CCOCC5)c(F)c4)ccc3C)nc2n1` [Compound 526, (S)-N-(3-(1-((2-ethyl-2H-pyrazolo[3,4-b]pyrazin-6-yl)amino)ethyl)-4-methylphenyl)-3-fluoro-5-methyl-4-(morpholinomethyl)benzamide], the half-maximal inhibitory concentration (IC50) in assay [1] and in assay [2] was < 300 nM in each case.

Consider `CCn1cc2ncc(N[C@@H](C)c3cc(NC(=O)c4cc(C)c(CN5CC[C@@H](O)C5)c(F)c4)ccc3C)nc2n1` [Compound 527, N-(3-((S)-1-((2-ethyl-2H-pvrazolo[3,4-b]pyrazin-6-yl)amino)ethyl)-4-methylphenyl)-3-fluoro-4-(((R)-3-hydroxypyrrolidin-1-yl)methyl)-5-methylbenzamide], for which the 50% inhibitory concentration (IC50) in assay [1] and in assay [2] was < 300 nM each time.

On to `CCn1cc2ncc(N[C@@H](C)c3cc(NC(=O)c4cc(C)c(CN5CCN(C)CC5)c(F)c4)ccc3C)nc2n1` [Compound 528, (S)-N-(3-(1-((2-ethyl-2H-pyrazolo[3,4-b]pyrazin-6-yl)amino)ethyl)-4-methylphenyl)-3-fluoro-5-methyl-4-((4-methylpiperazin-1-yl)methyl) benzamide], for which the IC50 in assay [1] and in assay [2] was < 300 nM in each case.

As to `Cc1cncc(C(=O)Nc2cccc([C@H](C)Nc3cnc4[nH]ncc4n3)c2)c1` [Compound 529, (S)-N-(3-(1-((1H-pyrazolo[3,4-b]pyrazin-5-yl)amino)ethyl)phenyl)-5-methylnicotinamide], the IC50 in assay [1] and in assay [2] was < 300 nM throughout.

Turning to `CC(C)c1cc(C(=O)Nc2cccc([C@H](C)Nc3cnc4[nH]ncc4n3)c2)no1` [Compound 530, (S)-N-(3-(1-((1H-pyrazolo[3,4-b]pyrazin-5-yl)amino)ethyl)phenyl)-5-isopropylisoxazole-3-carboxamide], the IC50 in assay [1] and in assay [2] was < 300 nM each time.

Turning to `COc1cncc(C(=O)Nc2cccc([C@H](C)Nc3cnc4[nH]nc(C)c4n3)c2)c1` [Compound 531, (S)-5-methoxy-N-(3-(1-((3-methyl-1H-pyrazolo[3,4-b]pyrazin-5-yl)amino)ethyl)phenyl)nicotinamide], the IC50 in assay [1] and in assay [2] was < 300 nM throughout.

For the molecule `Cc1n[nH]c2ncc(N[C@@H](C)c3cccc(NC(=O)c4cncc(C(F)F)c4)c3)nc12` [Compound 532, (S)-5-(difluoromethyl)-N-(3-(1-((3-methyl-1H-pyrazolo[3,4-b]pyrazin-5-yl)amino)ethyl)phenyl)nicotinamide], the 50% inhibitory concentration (IC50) in assay [1] and in assay [2] was < 300 nM each time.

Take `Cc1n[nH]c2ncc(N[C@@H](C)c3cccc(NC(=O)c4cncc(Cl)c4)c3)nc12` [Compound 533, (S)-5-chloro-N-(3-(1-((3-methyl-1H-pyrazolo[3,4-b]pyrazin-5-yl)amino)ethyl)phenyl)nicotinamide]: the IC50 in assay [1] and in assay [2] was < 300 nM in each case.

Turning to `Cc1n[nH]c2ncc(N[C@@H](C)c3cccc(NC(=O)c4ccc(C(F)(F)F)nc4)c3)nc12` [Compound 534, (S)-N-(3-(1-((3-methyl-1H-pyrazolo[3,4-b]pyrazin-5-yl)amino)ethyl)phenyl)-6-(trifluoromethyl)nicotinamide], the IC50 in assay [1] and in assay [2] was < 300 nM throughout.
